{"source": "paper PMC4020785", "about": "(PLoS ONE, 2014)", "key": {"[1]": {"tested_on": "HIV LTR in J-Lat clones", "assay": "LTR-driven GFP expression in J-Lat clones", "format": "cell-based, HIV-1", "conditions": "J-Lat clones 9.2 and 10.6, 48 h, all concentrations tested", "experimental": "J-Lat cells are Jurkat cells stably transfected by an HIV genome whose nef sequence was replaced by the GFP gene. Also, a frameshift mutation was introduced to the env gene to prevent virus spread. […] To test the ISDs, a million cells of each clone were treated with different concentrations of each compound (ING-A, ING-B, ING-C, prostratin and PMA) at 37°C. TNF-α (10 ng/mL) was used as a positive control. After 48 h, cells were collected, washed with saline solution (PBS) and GFP expression was evaluated in a FACScalibur cytometer (BD Biosciences). Data were analyzed with Cell Quest Pro software (BD Biosciences)."}, "[2]": {"tested_on": "CD4, CXCR4, CCR5 on MT-4 cells", "assay": "Surface CD4, CXCR4, CCR5 expression in MT-4 cells (cytometry)", "format": "cell-based", "conditions": "1 µM", "experimental": "(§1) For analysis of cell surface marker expression, MT-4 cells and bead-selected CD4+ T cells (described above) were incubated with 1 µM of each compound (ING-A, ING-B, ING-C, prostratin, PMA, and bryostatin-1) at 37°C for 48 h. After incubation, cells were washed with PBS and incubated for 20 min at room temperature with antibodies against CD3-Brilliant Violet 510 (clone OKT3 – Biolegend), CD4-Qdot 655 (clone 53.5 - Life Technologies), CXCR4-PE (clone 1265 - BD Biosciences), CCR5-PerCP-Cy5.5 (clone 3A9 - BD Biosciences), CD69-Pacific Blue (clone FN50 – BD Biosciences), CD38-FITC (clone AT-1 – Stem Cell Technologies), CD25-APC (clone 2A3 – BD Biosciences), HLA-DR-Qdot 605 (clone TÜ36 – Life Technologies) and a marker for annexin V-FITC (Life Technologies). Cells (both MT-4 cells and CD4+ T cells) were initially incubated for 2 h with different PKC inhibitors (GÖ6983, GÖ6976 or RO-31-8220). Then, ING-B, prostratin or PMA at 1 µM or TNF-α at 10 ng/mL were added to each condition and incubation was carried out for 24 h at 37°C. Similar protocol was used for the analysis of PKC inhibitors in J-Lat clones 9.2 and 10.6. GFP expression, surface marker expression and activation marker were evaluated on a LSR Fortessa cytometer (BD Biosciences). Data analysis was performed using FlowJo software (Tree Star)."}, "[3]": {"tested_on": "CD4, CXCR4, CCR5 on CD4+ T lymphocytes", "assay": "Surface CD4, CXCR4, CCR5 expression in CD4+ T lymphocytes (cytometry)", "format": "cell-based, human", "conditions": "CD4+ lymphocytes, 1 µM", "experimental": "as §1"}, "[4]": {"tested_on": "CD4+ T lymphocytes", "assay": "Activation markers CD25, CD38, HLA-DR, CD69 on CD4+ T lymphocytes (cytometry)", "format": "cell-based, human", "conditions": "1 µM", "experimental": "For analysis of cell surface marker expression, MT-4 cells and bead-selected CD4+ T cells (described above) were incubated with 1 µM of each compound (ING-A, ING-B, ING-C, prostratin, PMA, and bryostatin-1) at 37°C for 48 h. […] Cells (both MT-4 cells and CD4+ T cells) were initially incubated for 2 h with different PKC inhibitors (GÖ6983, GÖ6976 or RO-31-8220). Then, ING-B, prostratin or PMA at 1 µM or TNF-α at 10 ng/mL were added to each condition and incubation was carried out for 24 h at 37°C. […] GFP expression, surface marker expression and activation marker were evaluated on a LSR Fortessa cytometer (BD Biosciences). Data analysis was performed using FlowJo software (Tree Star)."}, "[5]": {"tested_on": "PKC", "assay": "PKC inhibitors on diterpene-induced GFP expression in J-Lat clones 9.2 and 10.6", "format": "cell-based", "experimental": "as §1"}, "[6]": {"tested_on": "PKC", "assay": "PKC inhibitors on ING-B-driven receptor downregulation in MT-4 cells", "format": "cell-based", "conditions": "0.1 µM inhibitor, then 1 µM ING-B 24 h", "experimental": "as §1"}, "[7]": {"tested_on": "PKC", "assay": "PKC inhibitors on ING-B-driven receptor downregulation in CD4+ T lymphocytes", "format": "cell-based, human", "conditions": "0.1 µM inhibitor in the presence of 1 µM ING-B", "experimental": "as §1"}, "[8]": {"tested_on": "HIV-1 clone NL4.3 (subtype B)", "assay": "HIV-1 NL4.3 (subtype B) infection of MT-4 cells, Cell Titer Blue readout", "format": "cell-based", "conditions": "Human immunodeficiency virus 1, MT4; MT-4 cells, Subtype B (X4); value estimated by extrapolation; read-out: EC50", "experimental": "(§2) Human PMBCs were incubated with 100 U recombinant IL-2 (Sigma-Aldrich) and 5 µg/mL phytohemagglutinin-P (PHA-P) (Difco) for 5 days at 37°C. MT-4 cells (1×10^6) or treated PBMCs (1.2×10^8) were infected with HIV-1 clone NL-4.3 or ZM247Fv-1 (MOI of 0.001) by spinoculation (1200 g at room temperature for 2 h). Uninfected cells were used as negative control and were also subjected to the spinoculation process. After spinoculation, supernatants were discarded and cells were resuspended in 10 mL of R10. Cells from each condition were then added to wells (96-well plate) containing serial dilutions of each ISD. For MT-4 cells, each dilution was done in sextuplicates and, for PBMCs, in triplicates. Cells were also incubated with different concentrations of ZDV as positive control. After 5 days in culture, Cell Titer Blue was added to each well and cells were incubated for additional 24 h. The median effective concentration for each drug is defined as EC50. In parallel with the infectivity assay, the same cell types were treated with different concentrations of drugs to determine their cytotoxicity, following the protocol described above. Drug concentration that results in a 50% decrease in viable cells is defined as the CC50 for each compound. EC50 was calculated according to Spearman-Karber and therapeutic index was defined by the ratio between CC50 and EC50 [55].\n(§3) All statistical analyses were performed using program GraphPism version 6.0. Titrations for TCID50 infectivity were calculated by the Spearman-Karber method. Dose response curves to ISDs with HIV-1 subtype B and C were done using non-linear regression and were fit to the Hill equation."}, "[9]": {"tested_on": "HIV-1 clone ZM247Fv-1 (subtype C)", "assay": "HIV-1 ZM247Fv-1 (subtype C) infection of MT-4 cells, Cell Titer Blue readout", "format": "cell-based", "conditions": "Human immunodeficiency virus 1, MT4", "experimental": "as §2, §3"}, "[10]": {"tested_on": "HIV-1 clone NL4.3 (subtype B)", "assay": "HIV-1 NL4.3 (subtype B) infection of human PBMCs, Cell Titer Blue readout", "format": "cell-based", "conditions": "Human immunodeficiency virus 1; Human PBMC, Subtype B (X4); read-out: EC50", "experimental": "as §2, §3"}, "[11]": {"tested_on": "HIV-1 clone ZM247Fv-1 (subtype C)", "assay": "HIV-1 ZM247Fv-1 (subtype C) infection of human PBMCs, Cell Titer Blue readout", "format": "cell-based", "conditions": "Human immunodeficiency virus 1, PBMC", "experimental": "as §2, §3"}, "[12]": {"tested_on": "HIV-1 subtype B and C", "assay": "Inhibition of HIV-1 subtype B and C replication, summary over MT-4 cells and human PBMCs", "format": "cell-based", "conditions": "Human immunodeficiency virus 1, PBMC, MT-4 and human PBMCs", "experimental": "as §2"}, "[13]": {"tested_on": "HIV-1 p24 in J-Lat clones", "assay": "HIV-1 p24 production in J-Lat clones (ELISA)", "format": "cell-based", "experimental": "(§4) ACH-2 and J1.1 are clonal cell lines derived from CEM [52] and Jurkat cells, respectively, after infection with HIV-1. U1 cells were derived from the human promonocyte cell line U937 and chronically infected with HIV-1 [54]. Each cell line (1×10^6 cells) was incubated in the presence of 1 µM of diterpenes (ING-A, ING-B, ING-C, prostratin and PMA) or 10 ng/mL TNF-α for 48 h at 37°C. After incubation, cells were centrifuged and supernatants were collected for the quantitation of gag p24 antigen by ELISA, following the protocol described by the manufacturer (Perkin Elmer).\nTo assess whether the GFP expression levels induced by ISDs in J-Lats led to viral production, all five clones were stimulated with 1 µM of each compound for 48 h and production of HIV-1 p24 was measured in the culture supernatant by ELISA. Levels of p24 were proportional to GFP expression in clones 6.3 and 9.2, whereas levels in clone 8.4 were lower when compared to GFP (Figure 3A)."}, "[14]": {"tested_on": "ACH-2 cells", "assay": "gag p24 production in ACH-2 cells (ELISA)", "format": "cell-based, HIV-1", "conditions": "ACH-2, 1 µM, 48 h", "experimental": "as §4"}, "[15]": {"tested_on": "HIV-1 latency", "set-up": "method as in PMID 15284245", "conditions": "statement in discussion, reference given only in the next sentence; cited from earlier work"}}, "data": [{"smiles": "CCCCCCCCCCCCCC(=O)O[C@@H]1[C@@H](C)[C@@]2(O)[C@@H](C=C(CO)C[C@]3(O)C(=O)C(C)=C[C@@H]23)[C@@H]2C(C)(C)[C@]12OC(C)=O", "note": "[PMA, phorbol 13-myristate acetate]", "values": [{"measurement": "levels of GFP expression, rank order", "setting": "[1]", "value": "PMA = ING-B > ING-A = ING-C > prostratin"}, {"measurement": "surface CD4 and CXCR4 expression, of that in the control condition", "setting": "[2]", "value": "≥ 50", "unit": "%"}, {"measurement": "levels of CD4 expression", "setting": "[3]", "value": "severely diminished"}, {"measurement": "CD25 surface expression", "setting": "[4]", "value": "upregulated"}, {"measurement": "CD69 and CD38 surface expression", "setting": "[4]", "value": "more intensely"}, {"measurement": "HLA-DR surface expression", "setting": "[4]", "value": "upregulated by ISDs and PMA"}]}, {"smiles": "Cn1cc(C2=C(c3cn(CCCSC(=N)N)c4ccccc34)C(=O)NC2=O)c2ccccc21", "note": "[RO-31-8220]", "values": [{"measurement": "reduction of ING-B-driven GFP expression", "setting": "[5]; discussion statement", "value": 75, "unit": "%"}, {"measurement": "GFP expression reduced to", "setting": "[5]; pre-incubation with 0.1 µM inhibitor, response to ISDs, prostratin and PMA", "value": 75, "unit": "%"}, {"measurement": "effect on ING-B-driven receptor downregulation", "setting": "[6]", "value": "not able to downregulate the expression of CD4 and CXCR4"}, {"measurement": "overexpression of CD4 and CCR5 compared to untreated control", "setting": "[7]", "value": "up to 2.5 fold"}]}, {"smiles": "Cc1cn([C@H]2C[C@H](N=[N+]=[N-])[C@@H](CO)O2)c(=O)[nH]c1=O", "note": "[ZDV, Zidovudine, reference compound]", "values": [{"measurement": "EC50", "setting": "[8]", "value": 4, "unit": "nM"}, {"measurement": "EC50", "setting": "[9]", "value": 5, "unit": "nM"}, {"measurement": "EC50", "setting": "[10]", "value": 7, "unit": "nM"}, {"measurement": "EC50", "setting": "[11]", "value": 8, "unit": "nM"}, {"measurement": "EC50", "setting": "[12]", "value": "4 to 8", "unit": "nM"}]}, {"smiles": "CCC/C=C/C=C/C(=O)O[C@H]1/C(=C/C(=O)OC)C[C@H]2C[C@H]([C@@H](C)O)OC(=O)C[C@H](O)C[C@@H]3C[C@H](OC(C)=O)C(C)(C)[C@](O)(C[C@@H]4C/C(=C/C(=O)OC)C[C@H](/C=C/C(C)(C)[C@]1(O)O2)O4)O3", "note": "[bryostatin-1]", "values": [{"measurement": "downregulation of surface CD4 and CXCR4 (in words)", "setting": "[2]", "value": "not by prostratin and bryostatin-1"}, {"measurement": "downregulation of surface CCR5", "setting": "[3]", "value": "less efficient in downregulating surface expression of CCR5"}]}, {"smiles": "CC(=O)O[C@@]12C[C@@H](C)[C@@]3(O)[C@@H](C=C(CO)C[C@]4(O)C(=O)C(C)=C[C@@H]34)[C@@H]1C2(C)C", "note": "[prostratin, 12-deoxyphorbol 13-acetate]", "values": [{"measurement": "levels of GFP expression, rank order", "setting": "[1]", "value": "PMA = ING-B > ING-A = ING-C > prostratin"}, {"measurement": "p24 in culture supernatant", "setting": "[13]; J-Lat clone 15.4, 1 µM, 48 h", "value": "does not appear to work"}, {"measurement": "HIV-LTR activation, overall comparison", "setting": "[13]; J-Lat clones, GFP and p24 taken together", "value": "the less effective compound among all tested"}, {"measurement": "p24 production (in words)", "setting": "[14]", "value": "low levels of p24 production"}, {"measurement": "downregulation of surface CD4 and CXCR4 (in words)", "setting": "[2]", "value": "not by prostratin and bryostatin-1"}, {"measurement": "downregulation of surface CCR5", "setting": "[3]", "value": "less efficient in downregulating surface expression of CCR5"}, {"measurement": "CD25 surface expression", "setting": "[4]", "value": "upregulated"}, {"measurement": "HLA-DR surface expression", "setting": "[4]", "value": "not by prostratin"}, {"measurement": "concentration required to reactivate HIV-1 latency", "setting": "[15]", "value": "higher than 2 µM"}]}]}
